Test results: patent US20090012087A1, “New Aza-Bicyclohexane Compounds Useful As Inhibitors Of Thrombin” (ASTRAZENECA AB, priority 2007, published 2009)
Where a name gives a salt, the structure may show the parent alone.

Biological target: T1, Human α-thrombin (Homo sapiens, UniProt P00734)
T1 construct: Human α-thrombin; purchased Sigma Chemical Co. or Hematologic Technologies
Assay: Test A: Determination of Thrombin Inhibition with a Chromogenic, Robotic Assay
Type: biochemical
Conditions: chromogenic substrate S-2366 0.30 mmol/L, α-thrombin 0.020 NIHU/mL, 40 minutes incubation at 37° C.
Experimental: Determination of Thrombin Inhibition with a Chromogenic, Robotic Assay
The thrombin inhibitor potency is measured with a chromogenic substrate method, in a Plato 3300 robotic microplate processor (Rosys AG, CH-8634 Hombrechtikon, Switzerland), using 96-well, half volume microtitre plates (Costar, Cambridge, Mass., USA; Cat No 3690). Stock solutions of test substance in DMSO (72 μL), 0.1-1 mmol/L, are diluted serially 1:3 (24+48 μL) with DMSO to obtain ten different concentrations, which are analysed as samples in the assay. 2 μL of test sample is diluted with 124 μL assay buffer, 12 μL of chromogenic substrate solution (S-2366, Chromogenix, Mölndal, Sweden) in assay buffer and finally 12 μL of α-thrombin solution (Human α-thrombin, Sigma Chemical Co. or Hematologic Technologies) in assay buffer, are added, and the samples mixed. The final assay concentrations are: test substance 0.00068-133 μmol/L, S-2366 0.30 mmol/L, α-thrombin 0.020 NIHU/mL. The linear absorbance increment during 40 minutes incubation at 37° C. is used for calculation of percentage inhibition for the test samples, as compared to blanks without inhibitor.

Compound	IC50 [nM]
NC(C(=O)N1C[C@@H]2C[C@@H]2[C@H]1C(=O)NCc1cc(Cl)ccc1-n1cnnn1)c1ccccc1F (stereo partly drawn) [Example 74, (1S,2S,5R)-3-[2-Amino-2-(2-fluoro-phenyl)-acetyl]-3-aza-bicyclo[3.1.0]hexane-2-carboxylic acid 5-chloro-2-tetrazol-1-yl-benzylamide]	29
O=C(NCc1cc(Cl)ccc1-n1cnnn1)[C@@H]1[C@H]2C[C@H]2CN1C(=O)C(O)Cn1cncn1 (stereo partly drawn) [Example 52, (1S,2S,5R)-3-(2-Hydroxy-3-1,2,4-triazol-1-yl-propionyl)-3-aza-bicyclo[3.1.0]hexane-2-carboxylic acid 5-chloro-2-tetrazol-1-yl-benzylamide]	570
N[C@H](CC1CCCCC1)C(=O)N1CC2CC1(C(=O)NCc1cc(Cl)ccc1-n1cnnn1)C2 [Example 68, 2-((R)-2-Amino-3-cyclohexyl-propionyl)-2-aza-bicyclo[2.1.1]hexane-1-carboxylic acid 5-chloro-2-tetrazol-1-yl-benzylamide hydrochloride]	4
N[C@H](CO)C(=O)N1[C@H](C(=O)NCc2cc(Cl)ccc2-n2cnnn2)C[C@@H]2C[C@@H]21 [Example 49, (1S,3S,5S)-2-((R)-2-Amino-3-hydroxy-propionyl)-2-aza-bicyclo[3.1.0]hexane-3-carboxylic acid 5-chloro-2-tetrazol-1-yl-benzylamide hydrochloride]	450
O=C(NCc1cc(Cl)ccc1-n1cnnn1)[C@@H]1[C@H]2C[C@H]2CN1C(=O)[C@H](O)c1cc(Cl)cc(OC(F)F)c1 [Example 36, (1S,2S,5R)-3-[2-((R)-3-Chloro-5-difluoromethoxy-phenyl)-2-hydroxy-acetyl]-3-aza-bicyclo[3.1.0]hexane-2-carboxylic acid 5-chloro-2-tetrazol-1-yl-benzylamide]	9
(1S,3S,5S)-2-(4-Hydroxy-1-benzopyran-4-carbonyl)-2-aza-bicyclo[3.1.0]hexane-3-carboxylic acid 5-chloro-2-tetrazol-1-yl-benzylamide [Example 63]	41
CC(C)(C)C[C@@H](N)C(=O)N1[C@@H]2C[C@@H]2C[C@H]1C(=O)NCc1cc(Cl)ccc1-n1cnnn1 [Example 19, (1R,3S,5R)-2-((R)-2-Amino-4,4-dimethyl-pentanoyl)-2-aza-bicyclo[3.1.0]hexane-3-carboxylic acid 5-chloro-2-tetrazol-1-yl-benzylamide hydrochloride]	4
O=C(NCc1cc(F)ccc1-n1cnnn1)[C@@H]1C[C@@H]2C[C@@H]2N1C(=O)[C@H](O)c1cccc(Cl)c1 [Example 70, (1S,3S,5S)-2-[(R)-2-(3-Chloro-phenyl)-2-hydroxy-acetyl]-2-aza-bicyclo[3.1.0]hexane-3-carboxylic acid 5-fluoro-2-tetrazol-1-yl-benzylamide]	36
O=C([C@H](O)C1CCCCC1)N1CC2CC1(C(=O)NCc1cc(Cl)ccc1-n1cnnn1)C2 [Example 67, 2-((R)-2-Cyclohexyl-2-hydroxy-acetyl)-2-aza-bicyclo[2.1.1]hexane-1-carboxylic acid 5-chloro-2-tetrazol-1-yl-benzylamide]	85
O=C(NCc1cc(Cl)ccc1-n1cnnn1)[C@@H]1C[C@@H]2C[C@@H]2N1C(=O)C(O)Cn1cncn1 (some centres unmarked) [Example 51]	420
O=C(N1CC2CC1(C(=O)NCc1cc(Cl)ccc1-n1cnnn1)C2)C1(O)CCOc2ccccc21 (racemic) [Example 64, (rac)-2-(4-Hydroxy-1-benzopyran-4-carbonyl)-2-aza-bicyclo[2.1.1]hexane-1-carboxylic acid 5-chloro-2-tetrazol-1-yl-benzylamide]	40
N[C@@H](C(=O)N1[C@H](C(=O)NCc2cc(Cl)ccc2-n2cnnn2)C[C@@H]2C[C@@H]21)c1ccccc1 [Example 43, (1S,3S,5S)-2-((R)-2-Amino-2-phenyl-acetyl)-2-aza-bicyclo[3.1.0]hexane-3-carboxylic acid 5-chloro-2-tetrazol-1-yl-benzylamide]	5
O=C([C@H](O)C1CCCCC1)N1CC[C@@H]2C[C@@]21C(=O)NCc1cc(Cl)ccc1-n1cnnn1 [Example 27, (1S,5R)-2-((R)-2-Cyclohexyl-2-hydroxy-acetyl)-2-aza-bicyclo[3.1.0]hexane-1-carboxylic acid-5-chloro-2-tetrazol-1-yl-benzylamide]	7
O=C(NCc1cc(Cl)ccc1-n1cncn1)[C@@H]1C[C@@H]2C[C@@H]2N1C(=O)C(O)Cn1cncn1 (stereo partly drawn) [Example 69, (1S,3S,5S)-2-(2-Hydroxy-3-1,2,4-triazol-1-yl-propionyl)-2-aza-bicyclo[3.1.0]hexane-3-carboxylic acid 5-chloro-2-1,2,4-triazol-1-yl-benzylamide]	780
N[C@@H](C(=O)N1[C@H](C(=O)NCc2cc(Cl)ccc2-n2cnnn2)C[C@@H]2C[C@@H]21)c1ccc(O)cc1 [Example 48, (1S,3S,5S)-2-[(R)-2-Amino-2-(4-hydroxy-phenyl)-acetyl]-2-aza-bicyclo[3.1.0]hexane-3-carboxylic acid 5-chloro-2-tetrazol-1-yl-benzylamide hydrochloride]	22
CC(C)(C1CC1)C(O)C(=O)N1C[C@@H]2C[C@@H]2[C@H]1C(=O)NCc1cc(Cl)ccc1-n1cnnn1 (stereo partly drawn) [Example 62, (1S,2S,5R)-3-(3-Cyclopropyl-2-hydroxy-3-methyl-butyryl)-3-aza-bicyclo[3.1.0]hexane-2-carboxylic acid 5-chloro-2-tetrazol-1-yl-benzylamide]	2
CC(C)(C1CC1)C(O)C(=O)N1[C@H](C(=O)NCc2cc(Cl)ccc2-n2cnnn2)C[C@@H]2C[C@@H]21 (stereo partly drawn) [Example 33, (1S,3S,5S)-2-(3-Cyclopropyl-2-hydroxy-3-methyl-butyryl)-2-aza-bicyclo[3.1.0]hexane-3-carboxylic acid 5-chloro-2-tetrazol-1-yl-benzylamide]	10
